Measured values taken from patent publication US20210220295A1, “TREATMENT OF CANCER BY GUANIDINIUM DERIVATIVES” (priority 2018, published 2021).

Assays:
[1] = mouse, in vivo
[2] = system: CAPANI cells (which are deficient in brca2); settings: cited from earlier work
[3] = system: MCF-7 brca1+/+cells; settings: 10 μM, exposure for 10 consecutive days; cited from earlier work

## poly-[2-(2-ethoxyethoxyethyl)guanidinium hydrochloride]
[1]
  tolerated dose, daily intravenous dosing regime: 2.5 mg/kg body weight
[1]; iv
  tolerated dose, weekly basis: 5 mg/kg body weight

## O=C1CCC(=O)N1c1cc(Cc2n[nH]c(=O)c3ccccc23)ccc1F [KU0058684]
[2]
  inhibition of CAPANI cells: inhibited

## Cc1nc2c(O)cccc2c(=O)[nH]1 [NU1025]
[2]
  inhibition of CAPANI cells: not inhibited

## CN(C)Cc1ccc(-c2nc3cccc4c3n2CCNC4=O)cc1 [AG14361]
[3]
  MCF-7 brca1+/+ cells eradicated: 50%
